Measurements as given in US20030022821A1, “Bioactive peptides” (priority 1998, published 2003).
Converted amounts (≈) assume the structure as drawn. Read-outs that look alike come from different tables or passages of the source. Ends that are not written are not given here. Peptide text beside a SMILES is read from it. * marks the point of attachment. Fmoc = O=C(OCC1c2ccccc2-c2ccccc21)*; Acm = CC(=O)NC*

Columns and labels:
[1] = test system: Escherichia coli ATCC 25922; type: cell-based
In short: (§1)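 Peptides were assayed against mid-log cultures by microdilution (1% Bacto Peptone water, 2×10^6 CFU/ml). Their solution concentration was measured by HPLC before and after plating. Triplicate determinations.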

[2] = test system: Staphylococcus aureus ATCC 25923; type: cell-based
In short: as §1

human red blood cells = assay: Hemolytic assay; type: cell-based
[3] = test system: Meth A cells (murine sarcoma cell line); assay: Cytotoxicity on Meth A cells, MTT method
Protocol: Peptide solutions (0.1 ml) were added and the plates incubated at 37° C. for 30 minutes, 4 hours or 24 hours. The cytotoxicity was measured using the MTT method (Mosmann et al., J. Immunol. (1986) 136, 2348-2357).
Cells in the growth phase were harvested and washed in fresh medium and injected subcutaneously into the abdominal region of the mice.
The cytotoxic effect of the peptides on different murine and human tumor cells were measured using the MTT method (Mosmann et al., J. Immunol. (1986) 136, 2348-2357). MTT is a soluble tetrazolium salt yielding a yellow solution when prepared in media or salt solutions lacking phenol red. Dissolved MTT is converted to an insoluble purple formazan by cleavage of the tetrazolium ring by dehydrogenase enzymes. This water insoluble formazan can be solubilized using isopropanol or other solvents and the dissolved material is measured spectrophotometrically. The absorbance was measured as a function of concentration of converted dye.
Cells were maintained in […] medium containing 10% FBS, 1% L-glutamine and 0.1% penicillin and streptomycin. Cells to be used in the assay were grown to confluency, trypsinated and split to single cell suspension, counted and centrifuged at 1500 rpm for 10 min. […][…] of cell suspension was transferred to each well on a 96-well microtiter plate. The cells were stimulated by adding […] of various concentrations of peptides diluted with assay medium to each well. The final concentrations of peptide were for example: 5, 10, 20, 40, 60, 80, 100, and 200 mg/ml. […] As a negative control only medium was added to the cells, and as a positive control (100% killing) 1% triton X-100 was added. Following an incubation period of 4 h., 20 ml MTT dissolved in PBS at a concentration of 5 mg/ml was added to each well, and the plate was incubated further for 2 h. 130 ml of the supernatant were then removed and […] acid alcohol (0.04-0.1 N HCl in isopropanol) added to each well to dissolve the dark blue crystals. The plate was placed on a shaker for 1 h and read spectrophotometrically at 590 nm in a microtiterplate reader using the Softmaxâ program.

Compound | MIC E. coli ([1]; ATCC 25922) [µg/mL] | MIC S. aureus ([2]; ATCC 25923) [µg/mL] | % Hemolysis 10 μg/ml (human red blood cells; red cells of human) [%] | % Hemolysis 100 μg/ml (human red blood cells; red cells of human) [%] | MethA IC50 ([3]; 4 h) [µg/mL] | MIC E. coli ([1]; Table 11) [µg/mL] | MIC S. aureus ([2]; Table 11) [µg/mL] | EC 50 (human red blood cells) [µg/mL] | EC50 (human red blood cells) [µM] | killing of Meth A cells ([3]; 250 μg/ml at ½ hour and 4 hours) | EC50 (human red blood cells; red cells of human) [µM] | EC50 ([3]; 4 h) [µM] | IC50 ([3]; 4 h) [µM] | IC50 ([3]; read-out: MethA IC 50, Table 7, peptide required to kill 50% of MethA cells) [µM]
CSCC[C@H](NC(=O)[C@H](CCCNC(=N)N)NC(=O)[C@H](C)NC(=O)[C@H](CCC(N)=O)NC(=O)[C@H](Cc1c[nH]c2ccccc12)NC(=O)[C@H](CCCNC(=N)N)NC(=O)[C@H](CCCNC(=N)N)NC(=O)[C@H](CSCNC(C)=O)NC(=O)[C@H](CCCCN)NC(=O)[C@@H](N)Cc1ccccc1)C(=O)N[C@@H](CCCCN)C(=O)N[C@@H](CCCCN)C(=O)N[C@@H](CC(C)C)C(=O)NCC(=O)N[C@@H](C)C(=O)O [LFB A8] (H-FKC(Acm)RRWQARMKKLGA-OH; N-terminus assumed) | >200 | >200 | 2.8 | 3.45 | 500 |  |  |  |  |  |  |  |  | 
CSCC[C@H](NC(=O)[C@H](CCCNC(=N)N)NC(=O)[C@H](Cc1c(S(=O)(=O)c2c(C)c(C)c3c(c2C)CCC(C)(C)O3)[nH]c2ccccc12)NC(=O)[C@H](CCC(N)=O)NC(=O)[C@H](Cc1c[nH]c2ccccc12)NC(=O)[C@H](CCCNC(=N)N)NC(=O)[C@H](CCCNC(=N)N)NC(=O)[C@H](CSCNC(C)=O)NC(=O)[C@H](CCCCN)NC(=O)[C@@H](N)Cc1ccccc1)C(=O)N[C@@H](CCCCN)C(=O)N[C@@H](CCCCN)C(=O)N[C@@H](CC(C)C)C(=O)NCC(=O)N[C@@H](C)C(=O)O [LFB PMC8] | 18 (≈ 7.72 µM) | 10 (≈ 4.29 µM) | 3.6 | 9.79 | 150 |  |  |  |  |  |  |  |  | 
RRWQWRMKKL-OH [LFB 20-29] | 60 | >100 | 1.75 | 2.74 | 500 |  |  |  |  |  |  |  |  | 
CSCC[C@H](NC(=O)[C@H](CCCNC(=N)N)NC(=O)[C@H](Cc1c[nH]c2ccccc12)NC(=O)[C@H](CCC(N)=O)NC(=O)[C@H](Cc1c(S(=O)(=O)c2c(C)c(C)c3c(c2C)CCC(C)(C)O3)[nH]c2ccccc12)NC(=O)[C@H](CCCNC(=N)N)NC(=O)[C@H](CCCNC(=N)N)NC(=O)[C@H](CSCNC(C)=O)NC(=O)[C@H](CCCCN)NC(=O)[C@@H](N)Cc1ccccc1)C(=O)N[C@@H](CCCCN)C(=O)N[C@@H](CCCCN)C(=O)N[C@@H](CC(C)C)C(=O)NCC(=O)N[C@@H](C)C(=O)O [LFB PMC6] |  |  | 3.4 | 6 | 148 | 10 (≈ 4.29 µM) | 10 (≈ 4.29 µM) | >1000 | > 429 |  |  |  |  | 
CSCC[C@H](NC(=O)[C@H](CCCNC(=N)N)NC(=O)[C@H](C)NC(=O)[C@H](CCC(N)=O)NC(=O)[C@H](Cc1c[nH]c2ccccc12)NC(=O)[C@H](CCCNC(=N)N)NC(=O)[C@H](CCCNC(=N)N)NC(=O)[C@H](CSCNC(C)=O)NC(=O)[C@H](CCCCN)NC(=O)[C@H](Cc1ccccc1)NC(=O)OCC1c2ccccc2-c2ccccc21)C(=O)N[C@@H](CCCCN)C(=O)N[C@@H](CCCCN)C(=O)N[C@@H](CC(C)C)C(=O)NCC(=O)N[C@@H](C)C(=O)O [LFB A8 FMOC] (Fmoc-FKC(Acm)RRWQARMKKLGA-OH) | 60 (≈ 27.6 µM) | 10 (≈ 4.6 µM) | 2.87 | 7.79 |  |  |  |  |  | killed most of the cells |  |  |  | 
CSCC[C@H](NC(=O)[C@H](CCCNC(=N)N)NC(=O)[C@H](Cc1c[nH]c2ccccc12)NC(=O)[C@H](C)NC(=O)[C@H](Cc1c[nH]c2ccccc12)NC(=O)[C@H](CCCNC(=N)N)NC(=O)[C@H](CCCNC(=N)N)NC(=O)[C@H](C)NC(=O)[C@H](CCCCN)NC(=O)[C@H](Cc1ccccc1)NC(=O)[C@H](Cc1c[nH]c2ccccc12)NC(=O)[C@H](C)NC(=O)[C@@H]1CCCN1)C(=O)N[C@@H](CCCCN)C(=O)N[C@@H](CCCCN)C(=O)N[C@@H](CC(C)C)C(=O)N[C@@H](C)C(=O)N[C@@H](C)C(=O)O [LFB 14-31 A2,6, 10, 17] | 20 (≈ 8.8 µM) | 2.5 (≈ 1.1 µM) |  |  |  |  |  |  |  |  | > 440 | 165 | 165 | 165
